Ends that are not written are not given here.
How the values were obtained:
[1] = system: HasBCTD; assay: NMR chemical shift perturbation of HasBCTD by HasR TonB box peptides; format: binding, Serratia marcescens; settings: for chemical shift perturbation in 15N-1H HSQC spectra of HasBCTD: NMR HSQC, 293K, 50 mM sodium phosphate buffer, pH 7, 50 mM NaCl, 15% D2O/H2O, peptide:HasBCTD ratios 1∶2 to 4∶1, CSP >0.2 ppm considered large
Procedure: All NMR experiments were recorded at 293K on a Varian 600 MHz spectrometer with a cryogenically cooled triple resonance ^1H/(^15N/^13C) PFG probe. Proton chemical shifts were referenced to 2,2-dimethyl-2-silapentane-5-sulfonate (DSS) as 0 ppm. ^15N and ^13C chemical shifts were referenced indirectly to DSS. The pulse sequences were taken as implemented in the Varian BioPack. NMR data were processed using NMRPipe/NMRDraw and spectra were analyzed using NMRViewJ and CCPNMR Analysis, [24]. The HasB samples used for NMR experiments were from 0.35 to 0.7 mM in 50 mM sodium phosphate buffer, pH 7, 50 mM NaCl and 15% D2O/H2O (v/v).
CSP values of ^1H and ^15N amide of HasBCTD were obtained after interaction with the TonB box peptide by comparing the ^1H-^15N HSQC spectra of free and bound HasBCTD as previously explained. The samples were prepared in 50 mM sodium phosphate buffer, pH 7, 50 mM NaCl and 15% D2O/H20 (v/v). Lyophilized peptides were added to the HasBCTD solution at 1∶2, 1∶1, 2∶1 and 4∶1 ratios. CSP values greater than 0.2 ppm were considered as large. For proline residues no chemical shift change can be observed because of the lack of backbone amide proton.

[2] = target: T1, TonBCTD (Escherichia coli, UniProt P02929); assay: ITC interaction of TonBCTD with TonB box peptide; format: binding, E. coli
T1 construct: TonBCTD (TonB C-terminal domain); made in house
Procedure: Labeled and unlabeled HasBCTD (named HasB133 in our earlier publication) were prepared as described. TonBCTD of E. coli , previously named TonB116, was prepared as already reported. HasB mutations were introduced by PCR into the plasmid encoding HasBCTD wild type with the following pairs of oligonucleotides:
(§1) The TonB box peptides were synthesized with free acid C- and amine N-termini by Proteogenix (Strasbourg, France).
(§2) ITC was performed at 25°C using a MicroCal VP titration calorimeter (MicroCal-GE Healthcare) under the same conditions as described previously. The buffer was 20 mM sodium phosphate, pH 7, 50 mM NaCl for all the titrations, except for experiments carried out in the presence of HasR where 20 mM sodium phosphate, pH 7, 0.08% ZW 3–14 was used.
(§3) The heat of dilution of peptide/protein injections was determined either by injecting the ligand into the buffer alone or by injecting the ligand into the cell after the saturation of the protein binding site. The value obtained was subtracted from the heat of reaction to give the effective heat of binding. The resulting titration data were analyzed using Microcal-ORIGIN software package. The molar binding stoichiometry (N), association constant (Ka; Kd = 1/Ka) and enthalpy changes (ΔH) of binding were determined by fitting the binding isotherm to a model with one set of sites. Their values are the average of three experiments. HasBCTD/TonBCTD titrations with peptides were carried out by injecting 20–35 consecutive aliquots of 5–10 µL of a 1–1.5 mM peptide solution into the ITC cell containing 4 to 9×10^−5 M of protein solution of either HasBCTD or TonBCTD. For HasR titration experiments with HasB, 5–8×10^−5 M of HasBCTD wild type or mutants and 3–5 µM of HasR were used.

[3] = system: HasBCTD; assay: ITC interaction of HasBCTD with HasR TonB box peptides; format: binding, Serratia marcescens
Procedure: as §1, §2
as §3, with “HasBCTD/TonBCTD titrations with peptides were carried out by injecting 20–35 consecutive aliquots of 5–10 µL of a 1–1.5 mM peptide solution into the ITC cell containing 4 to 9×10^−5 M of protein solution of either HasBCTD or TonBCTD.” left out

[4] = Conformation of 21-mer peptide in solution by 2D TOCSY, NOESY and ROESY; format: physicochemical; settings: free peptide, data not shown

T1 sequence (P02929 148-239): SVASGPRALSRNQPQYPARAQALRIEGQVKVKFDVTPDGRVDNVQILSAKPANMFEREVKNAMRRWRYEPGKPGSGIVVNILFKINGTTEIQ

| Sequence | chemical shift perturbation in 15N-1H HSQC spectra of HasBCTD [1] | affinity (association constant Ka) ([2]; ITC, TonBCTD, 25°C, 20 mM sodium phosphate, pH 7, 50 mM NaCl, one set of sites, average of three experiments) | Kd ([2]; ITC, TonBCTD, 25°C, 20 mM sodium phosphate, pH 7, 50 mM NaCl, Kd = 1/Ka) [µM] | interaction with TonBCTD (in words) ([2]; same range of concentration as that used with HasBCTD) | interaction with HasBCTD (in words) ([3]; ITC and NMR CSP) | location of the most substantial CSP on HasBCTD ([1]; 15N HSQC, 21-mer peptide) | conformation in solution [4] | affinity constant (Ka) ([3]; ITC, HasBCTD, 25°C, 20 mM sodium phosphate, pH 7, 50 mM NaCl, one set of sites, average of three experiments, HasBCTD 9×10^−5 M, peptide 1.5 mM) [M⁻¹] | Kd ([3]; ITC, HasBCTD, 25°C, 20 mM sodium phosphate, pH 7, 50 mM NaCl, Kd = 1/Ka) [µM] |
| --- | --- | --- | --- | --- | --- | --- | --- | --- | --- |
| ALDSLTVLGAGG [dodecamer peptide] | no chemical shift perturbation could be observed | about 2×10^4 M^−1 | 50 | able to bind to TonBCTD | did not reveal any interaction with HasBCTD | – | – | – | – |
| GDGGALALDSLTVLGAGGNNA [21-mer peptide] | several CSP were observed | – | – | – | – | especially along the strand β3 and on the helix H1 | unstructured in solution | 40000 | 25 |

Reference: publication PMC3602595, “The Structure of HasB Reveals a New Class of TonB Protein Fold” (PLoS ONE, 2013)
